The text below walks through data of patent US20220177877A1, “HIGHLY MULTIPLEXED BASE EDITING” (President and Fellows of Harvard College, priority 2019, published 2022).

In data set [1] the test system is LINE-1. Kind of data set: Line-1 subfamily analysis and matches to HL1gR4 (HL1gR4 PCR products). The conditions noted are these: for Reads: Total Reads 35520. Details: species or system human.
The subject of data set [2] is LINE-1. The experiment in a line: FACS single cell direct NGS of targeted deamination, HEK 293T. The conditions noted are these: for Mean target deamination % / Percent of cells with targeted deamination / Number of cells with targeted deamination: HEK 293T; for Mean target deamination % / Percent of cells with targeted deamination: Day 2; for Number of cells with targeted deamination: Day 2, 96 analyzed cells. Format: cell-based, human. The protocol: To quantify early genetic editing in cells transfected with Cas9/BE and gRNA expression plasmids, single cells were sorted and prepared as follows. Two days post-transfection, single cells were FACS-sorted into 96-well PCR plates containing 10 μL of QUICKEXTRACT™ DNA Extraction Solution (Epicentre Cat. #QE09050) per well and genomic DNA (gDNA) was extracted using the manufacturer's protocol. Briefly, the sorted plates were sealed, vortexed and heated at 65° C. for 6 minutes then 98° C. for 2 minutes. The NGS library was prepared as described later below.
(§1) Library preparation was conducted as previously described^5.

Data set [3] relates to LINE-1. Kind of data set: Single cell clonal isolation and sequence verification of live edited HEK 293T clones. Conditions: for Mean target deamination % / Number of cells with targeted deamination / Percent of cells with targeted deamination: HEK 293T, Day 14; for non-specific nucleotide conversions in gRNA and PAM: most highly edited clone versus parental 293T control.
Method: (§2) Single cells were FACS-sorted into flat bottom 96-well plates containing 100 μL of DMEM with 10% FBS and 1% Penicillin/Streptomycin per well. Sorted plates were incubated for ˜14 days until well-characterized colonies were visible, with periodic media changes performed as necessary. To extract gDNA, the cells were first detached using 30 μL TRYPLE™ Express (Thermofisher Cat. #12604021) and neutralized with 30 μL growth media. Then, 4 μL of the resulting cell suspension was transferred to 10 μL of QE. Genomic DNA was extracted according to manufacturer's protocol, as described previously.
(§3) Library preparation was conducted as previously described^5. Briefly, genomic DNA was amplified using locus-specific primers attached to part of the Illumina adapter sequence. A second round of PCR included the index sequence and the full Illumina adapter. All PCRs were carried out using KAPA HiFi HotStart ReadyMix (KAPA Biosystems KK2602) according to the manufacturer's thermocycler conditions. Libraries were purified using gel extraction (Qiagen Cat. #28706), quantified using Nanodrop and pooled together for deep sequencing on the MiSeq using 150 paired end (PE) reads.
(§4) All paired end reads were aligned to the reference genome using bowtie2, and the resulting alignment files were converted to bam, sorted, indexed, and variant called using samtools^7. All SNV data within a 30 bp window from the 5′ start of the gRNA proceeding through the PAM and extending an additional seven bp's (for a 20 bp gRNA) are reported to analyze the editing window and purity of editing.
The test system of data set [4] is LINE-1.
Method: as §2, §3, §4
Data set [5] concerns LINE-1. The experiment in a line: NGS base editing deamination analysis, bulk transfected HEK 293T. Format: cell-based, human. The conditions noted are these: for gRNAs with above control levels of base editing in genomic DNA: HEK 293T, LINE-1 gRNAs. The protocol: as §1
[6] abbreviates: HL1gR6, 3 days after transfection.
[7] abbreviates: 293T, HL1gR4, two days post-transfection.

Method for single-locus targets: HEK 293T cells were obtained from ATCC with verification of cell line identification and mycoplasma negative results. They were expanded using 10% fetal bovine serum (FBS) in high-glucose DMEM with glutamax passaging at a typical rate of 1:100 and maintained at 37° C. with 5% CO2. Transfection was conducted using Lipofectamine 2000 (ThermoFisher Catalogue #11668019) using the protocol recommended by the manufacturer with slight modifications outlined below. 24 hours before transfection ˜1.0×10^5 cells were seeded per well in a 12-well plate along with 1 mL of media. A total of 2 μg of DNA and 2 μL of Lipofectamine 2000 were used per well. For Cas9 plasmids, the DNA content per well was 1 μg of pCas9_GFP mixed with 1 μg of gRNA-expressing plasmid. For BE plasmids, 1.5 μg of BE was mixed with 0.5 μg of gRNA plasmid. In the dBE vs nBE comparison used to generate FIGS. 4A-4C, Pifithrin-α (10 ng/μ1) from Sigma-Aldrich P4359 (source #063M4741V, Batch #0000003019) was added to the media 30 minutes before transfection and maintained in the first day media change.
Raw Illumina sequencing data was demultiplexed using bcl2fastq. All paired end reads were aligned to the reference genome using bowtie2^49 and the resulting alignment files were parsed for their cigar string to determine the position and size of all indels within each read using a custom perl script (https://github.com/CRISPRengineer/mutation_indel). All indels that were sequenced in both the forward and reverse reads were summed across all reads and reported for each sample along with the total number of reads. Indels within a 30 bp window from the 5′ start of the gRNA proceeding through the PAM and extending an additional seven bp's (for a 20 bp gRNA) were counted and summed for each sample.
as §4

Turning to “HL1gR4: SpCas9 gRNA targeting LINE-1 ORF2, SEQ ID NO: 54 (guide ATTCTACCAGAGGTACAAGG; chemistry not given here)”, the Percentage of reads came to 64.1% with LINE-1 [1] (# of Mismatches 0); 18.4% in the data set with LINE-1 [1] (# of Mismatches 1); 3.2% with LINE-1 [1] (# of Mismatches 2); 0.4% in the data set on LINE-1 [1] (# of Mismatches 3); 0.2% in the data set on LINE-1 [1] (# of Mismatches 4); 0.0% in the data set with LINE-1 [1] (# of Mismatches 5). The Percentage of reads in the data set on LINE-1 [1] (# of Mismatches 6) amounted to 0.1%; in the data set on LINE-1 [1] (# of Mismatches 7) it was 0.0%; in the data set with LINE-1 [1] (# of Mismatches 8), 0.0%; in the data set on LINE-1 [1] (# of Mismatches 9) it was 0.0%; with LINE-1 [1] (# of Mismatches >9) it was 13%. The Reads came to 22780 in the data set with LINE-1 [1] (# of Mismatches 0); 6546 in the data set with LINE-1 [1] (# of Mismatches 1); 1131 in the data set on LINE-1 [1] (# of Mismatches 2); 148 in the data set with LINE-1 [1] (# of Mismatches 3); 63 in the data set with LINE-1 [1] (# of Mismatches 4); 2 in the data set with LINE-1 [1] (# of Mismatches 5). Besides, the Reads in the data set on LINE-1 [1] (# of Mismatches 6) came to 26; in the data set with LINE-1 [1] (# of Mismatches 7) it was 1; in the data set with LINE-1 [1] (# of Mismatches 8), 1; with LINE-1 [1] (# of Mismatches 9) it was 1; in the data set on LINE-1 [1] (# of Mismatches >9), 4600.
With “dCBE4-gam: nick-less dCas9 cytidine base editor with mu-gam (H840A), SEQ ID NO: 108”, the “total number of chromosomal aberrations of top edited clones” value (shortened to “total number”) with HEK 293T was “not significantly different than control groups”. Further, in the data set with LINE-1 [2] (293T, HL1gR4, 2 days after transfection), the “mean target nucleotide deamination frequency compared to nBE equivalents” value is listed as “significant reductions”. Moreover, in the data set on LINE-1 [2], the “Mean target deamination %” value is given as 4.43%, the “Percent of cells with targeted deamination” value (from here on “Percent of cells”) came out at 41.7% and the “Number of cells with targeted deamination” value (“Number of cells” below) is recorded as 40. In addition, in the data set with single-locus targets, the indel activity result is reported as “reduced to background levels”. In the data set on LINE-1 [3], the “Mean target deamination %” value is on record as 3.05%; the “Number of cells” value is recorded as 20; the “Percent of cells” value was found to be 69%; the “non-specific nucleotide conversions in gRNA and PAM” value (from here on “non-specific nucleotide conversions”) is given as “some non-specific nucleotide conversions”. For the same substance, the “increase in mean editing frequency among surviving live clones compared to nicking counterpart” value in the data set with LINE-1 [3] (day 14) is reported as 2.38 fold. Moreover, the “Number of analyzed cells” value in the data set with LINE-1 [4] stood at 29.
With “dCBE4: nick-less dCas9 cytidine base editor (H840A), SEQ ID NO: 107”, the indel activity entry in the data set with single-locus targets is recorded as “reduced to background levels”. Moreover, in the data set with single-locus targets (293T cells, day five), the “improvement in editing efficiency over CBE2” value is recorded as 2.38 fold and the “reduction in efficiency compared to nicking counterparts” value is listed as 34.7%.
With “nABE: ecTadA(wt)-linker(32aa)-ecTadA*(7.10)-linker(32aa)-nCas9-NLS, SEQ ID NO: 15, Addgene #102919”, the “gRNAs with above control levels of base editing in genomic DNA” value in the data set on LINE-1 [5] is recorded as 4 out of 5. Moreover, in the data set with LINE-1 [5] (setting [6]), the editing efficiency worked out at 4.94% and the loci edited is approximately 1290 loci. The “total number” value with HEK 293T was “not significantly different than control groups”. Moreover, in the data set with LINE-1 [2], the “Mean target deamination %” value amounted to 5.32%, the “Percent of cells” value is on record as 60.4% and the “Number of cells” value is listed as 58. Further, in the data set on LINE-1 [2] (nABE 5.32% versus dABE 1.45%), the “decrease in editing efficiency at the early timepoint” value was found to be 3.67 fold. For the same substance, in the data set with LINE-1 [3], the “Mean target deamination %” value is 0.88%; the “Number of cells” value turned out to be 4; the “Percent of cells” value is on record as 25%; the “non-specific nucleotide conversions” value is on record as “not”. Further, in the data set on LINE-1 [4], the “Number of analyzed cells” value is given as 16.
Turning to “nCBE3: rAPOBEC1-XTEN-nCas9-UGI-NLS, SEQ ID NO: 10, Addgene #73021 [reference compound]”, the “mean deamination frequency compared with nCBE4-gam” value in the data set on LINE-1 [2] (setting [7]) is “significantly higher”. In addition, in the data set on LINE-1 [3] (293T, HL1gR4), the “fate of edited cell lines before day 30” value was “died”.
Take “nCBE4-gam: Cas9 nickase-cytidine deaminase-gam, SEQ ID NO: 12, Addgene #100806 [reference compound]”: in the data set with LINE-1 [5], the “gRNAs with above control levels of base editing in genomic DNA” value is recorded as 4 out of 5. Further, the “total number” value in the data set with HEK 293T was “not significantly different than control groups”. In the data set with LINE-1 [2] (setting [7]), the “deamination in the most highly edited single cell” value is on record as “up to 54.9%” and the “estimated loci edited in the most highly edited single cell” value is 14,300 loci. In the data set with LINE-1 [2], the “Mean target deamination %” value was 6.08%, the “Percent of cells” value was 65.6% and the “Number of cells” value was 63. Besides, the “C→T deamination in cells after a second round of editing of cloneK” value with LINE-1 [2] (day 2) is “up to 36.26%”. Besides, in the data set on LINE-1 [3] (293T, HL1gR4, day 30), the “deamination frequencies of surviving cell lines” value was ≤ 1.37 % of LINE-1 and the “estimated sites edited in surviving cell lines” value was approximately 356 sites. Besides, in the data set on LINE-1 [3], the “Mean target deamination %” value amounted to 1.28%; the “Number of cells” value worked out at 4; the “Percent of cells” value is 33%; the “non-specific nucleotide conversions” value is “some non-specific nucleotide conversions”. The “Number of analyzed cells” value in the data set with LINE-1 [4] turned out to be 12.
